Consider 27 molecules from patent US20240150356A1, “Pyrimidine amide compounds and use thereof” (ALPHALA CO., LTD., priority 2019, published 2024).

The term LC50 denotes the concentration that kills 50% of the test population.

The test system of the first experiment is Hep3B cells (hepatocellular carcinoma cell line). The experiment is described as follows: In vitro MTS cell viability assay (NCI-60 methodology), Hep3B. In kind it is cell-based. The conditions noted are these: Homo sapiens, 48 h, Table 1, MTS, 2 days drug incubation, 50% reduction vs time zero, read-out: Hep3B LC50. As to the method:
The cell viability measurement is based on the NCI-60 screening methodology (Nat. Rev. Cancer 6, 813-823, 2006). Briefly, cells are inoculated into 96-well plates at the optimal plating density. After 24 h, one of the two plates for Hep3B cell line is processed to determine a time zero cell viability (Tz) by MTS assay (Promega). Compounds are added over a 2-fold serial dilution to provide a total five drug concentrations plus DMSO control. Plates are incubated for a further 2 days, then measured cell viability by MTS assay [control growth (C) and test growth in the presence of drug at the five concentration levels (Ti)]. The LC50 is calculated from [(Ti−Tz)/Tz]×100=−50, which is the drug concentration resulting in a 50% reduction at the end of the drug treatment as compared to that at the beginning.
The compounds prepared in Tables 1-10 were tested in three in vitro assays, and the results are shown in Tables 1-10 for Hep3B and Table 11 for SW480 and NCI-H460 shown below. Herein, Hep3B refers to hepatocellular carcinoma cell line, SW480 refers to colon adenocarcinoma cell line, and NCI-H460 refers to human lung cancer cell line.
Shown in following Tables 1 to 10 are the structures and in vitro activities of exemplary compounds of formula (I).
(In general: Tetrazolium dyes change colour on reduction, which living cells bring about.)
Turning to `Cn1ncc2c(NC(=O)c3ccc([N+](=O)[O-])s3)nc(Oc3cccc(C(F)(F)F)c3)nc21` [Compound 1-18, N-(1-methyl-6-(3-(trifluoromethyl)phenoxy)-1H-pyrazolo[3,4-d]pyrimidin-4-yl)-5-nitrothiophene-2-carboxamide], the LC50 was 1990 nM.

Staying with this experiment, now noted: Homo sapiens, 48 h, Table 2, MTS, 2 days drug incubation, 50% reduction vs time zero, read-out: Hep3B LC50.
Consider `CC(C)(C)n1ncc2c(-c3ccc(OC(F)(F)F)cc3)nc(NC(=O)c3ccc([N+](=O)[O-])s3)nc21` [Compound 2-4, N-(1-(tert-butyl)-4-(4-(trifluoromethoxy)phenyl)-1H-pyrazolo[3,4,d]pyrimidin-6-yl)-5-nitrothiophene-2-carboxamide], for which the LC50 amounted to 3050 nM.

Staying with this experiment, now noted: Homo sapiens, 48 h, Table 4, MTS, 2 days drug incubation, 50% reduction vs time zero, read-out: Hep3B LC50.
For `Cc1csc2c(NC(=O)c3ccc([N+](=O)[O-])s3)nc(-c3cccc(F)c3)nc12` [Compound 4-7, N-(2-(3-fluorophenyl)-7-methylthieno[3,2-d]pyrimidin-4-yl)-5-nitrothiophene-2-carboxamide], the LC50 was 1280 nM.
As for `CC(C)(C)c1ccc(-c2csc3c(NC(=O)c4ccc([N+](=O)[O-])s4)nc(-c4ccc(F)cc4)nc23)cc1` [Compound 4-19, N-(7-(4-(tert-butyl)phenyl)-2-(4-fluorophenyl)thieno[3,2-d]pyrimidin-4-yl)-5-nitrothiophene-2-carboxamide], the LC50 came to 670 nM.
For the molecule `Cc1csc2c(NC(=O)c3ccc([N+](=O)[O-])s3)nc(-c3cc(C(F)(F)F)ccc3F)nc12` [Compound 4-13, N-(2-(2-fluoro-5-(trifluoromethyl)phenyl)-7-methylthieno[3,2-d]pyrimidin-4-yl)-5-nitrothiophene-2-carboxamide], the LC50 worked out at 1700 nM.
Take `Cc1csc2c(NC(=O)c3ccc([N+](=O)[O-])s3)nc(-c3ccc(F)cc3)nc12` [Compound 4-8]: the median lethal concentration (LC50) turned out to be 1700 nM.
In the case of `O=C(Nc1nc(-c2cc(C(F)(F)F)ccc2F)nc2c(-c3ccccc3)csc12)c1ccc([N+](=O)[O-])s1` [Compound 4-17, N-(2-(2-fluoro-5-(trifluoromethyl)phenyl)-7-phenylthieno[3,2-d]pyrimidin-4-yl)-5-nitrothiophene-2-carboxamide], the LC50 was determined as 860 nM.

Still in this experiment, the particulars now being: Homo sapiens, 48 h, Table 5, MTS, 2 days drug incubation, 50% reduction vs time zero, read-out: Hep3B LC50.
In the case of `Cc1noc(C)c1-c1nc(NC(=O)c2ccc([N+](=O)[O-])s2)c2cnn(-c3ccccc3)c2n1` [Compound 5-21, N-(6-(3,5-dimethylisoxazol-4-yl)-1-phenyl-1H-pyrazolo[3,4-d]pyrimidin-4-yl)-5-nitrothiophene-2-carboxamide], the LC50 is 760 nM.
On the same count and under the same terms, with `CC(C)(C)c1ccc(-c2nc(NC(=O)c3ccc([N+](=O)[O-])s3)c3cnn(-c4ccccc4)c3n2)cc1` [Compound 5-37, N-(6-(4-(tert-butyl)phenyl)-1-phenyl-1H-pyrazolo[3,4-d]pyrimidin-4-yl)-5-nitrothiophene-2-carboxamide] the figure was 780 nM.
The same measure, in the same setting: with `O=C(Nc1nc(-c2ccccc2F)nc2c1cnn2-c1ccccc1)c1ccc([N+](=O)[O-])s1` [Compound 5-25, N-(6-(2-fluorophenyl)-1-phenyl-1H-pyrazolo[3,4-d]pyrimidin-4-yl)-5-nitrothiophene-2-carboxamide] the figure was 460 nM; with `O=C(Nc1nc(-c2cc(F)c(F)c(F)c2)nc2c1cnn2-c1ccccc1)c1ccc([N+](=O)[O-])s1` [Compound 5-53, 5-nitro-N-(1-phenyl-6-(3,4,5-trifluorophenyl)-1H-pyrazolo[3,4-d]pyrimidin-4-yl)thiophene-2-carboxamide], greater than 1250 nM.

The experiment is the same for the next values; noted with them: Homo sapiens, 48 h, Table 6, MTS, 2 days drug incubation, 50% reduction vs time zero, read-out: Hep3B LC50.
For `O=C(Nc1nc(N2CCCCC2)nc2c1cnn2-c1ccc(Cl)cc1)c1ccc([N+](=O)[O-])s1` [Compound 6-47, N-(1-(4-chlorophenyl)-6-(piperidin-1-yl)-1H-pyrazolo[3,4,d]pyrimidin-4-yl)-5-nitrothiophene-2-carboxamide], the LC50 was found to be 710 nM.
For `O=C(Nc1nc(N2CCC(F)(F)C2)nc2c1cnn2-c1ccc(F)cc1)c1ccc([N+](=O)[O-])s1` [Compound 6-97, N-(6-(3,3-difluoropyrrolidin-1-yl)-1-(4-fluorophenyl)-1H-pyrazolo[3,4-d]pyrimidin-4-yl)-5-nitrothiophene-2-carboxamide], the LC50 was 570 nM.
For `C[C@@H]1CN(c2nc(NC(=O)c3ccc([N+](=O)[O-])s3)c3cnn(-c4ccc(F)cc4)c3n2)C[C@H](C)O1` [Compound 6-99, N-(6-((2S,6R)-2,6-dimethylmorpholino)-1-(4-fluorophenyl)-1H-pyrazolo[3,4-d]pyrimidin-4-yl)-5-nitrothiophene-2-carboxamide], the 50% lethal concentration (LC50) was found to be 610 nM.
As to `COc1ccc(-n2ncc3c(NC(=O)c4ccc([N+](=O)[O-])s4)nc(C4=CCC(C)(C)CC4)nc32)cc1` [Compound 6-29, N-(6-(4,4-dimethylcyclohex-1-en-1-yl)-1-(4-methoxyphenyl)-1H-pyrazolo[3,4-d]pyrimidin-4-yl)-5-nitrothiophene-2-carboxamide], the median lethal concentration (LC50) was 820 nM.
On the same count and under the same terms, with `COCCOc1ccc(-c2nc(NC(=O)c3ccc([N+](=O)[O-])s3)c3cnn(-c4ccc(OC)cc4)c3n2)cn1` [Compound 6-26, N-(6-(6-(2-methoxyethoxy)pyridin-3-yl)-1-(4-methoxyphenyl)-1H-pyrazolo[3,4,d]pyrimidin-4-yl)-5-nitrothiophene-2-carboxamide] the figure was 220 nM.

Staying with this experiment, now noted: Homo sapiens, 48 h, Table 7, MTS, 2 days drug incubation, 50% reduction vs time zero, read-out: Hep3B LC50.
Turning to `O=C(Nc1nc(-c2ccc(F)cc2)nc2c1cnn2-c1ccc(Cl)cc1Cl)c1ccc([N+](=O)[O-])s1` [Compound 7-9], the LC50 came out at 370 nM.

The same experiment, now with this note: Homo sapiens, 48 h, Table 8, MTS, 2 days drug incubation, 50% reduction vs time zero, read-out: Hep3B LC50.
With `C[C@@H]1C[C@@H](n2ncc3c(NC(=O)c4ccc([N+](=O)[O-])s4)nc(-c4ccc(Cl)cc4)nc32)CC(C)(C)C1` [Compound 8-15, N-(6-(4-chlorophenyl)-1-((1R,5S)-3,3,5-trimethylcyclohexyl)-1H-pyrazolo[3,4-d]pyrimidin-4-yl)-5-nitrothiophene-2-carboxamide], the LC50 was 1270 nM.
As to `C[C@@H]1C[C@@H](n2ncc3c(NC(=O)c4ccc([N+](=O)[O-])s4)nc(-c4ccc(F)cc4)nc32)CC(C)(C)C1` [Compound 8-13, N-(6-(4-fluorophenyl)-1-((1R,5S)-3,3,5-trimethylcyclohexyl)-1H-pyrazolo[3,4-d]pyrimidin-4-yl)-5-nitrothiophene-2-carboxamide], the LC50 turned out to be 900 nM.

Staying with this experiment, now noted: Homo sapiens, 48 h, Table 9, MTS, 2 days drug incubation, 50% reduction vs time zero, read-out: Hep3B LC50.
As to `CCOCCOC(=O)N1CCC(n2ncc3c(NC(=O)c4ccc([N+](=O)[O-])s4)nc(-c4ccc(Cl)cc4)nc32)CC1` [Compound 9-13, 2-ethoxyethyl 4-(6-(4-chlorophenyl)-4-(5-nitrothiophene-2-carboxamido)-1H-pyrazolo [3,4-d]pyrimidin-1-yl)piperidine-1-carboxylate], the LC50 was found to be 1620 nM.

The same experiment, now with this note: Homo sapiens, 48 h, Table 10, MTS, 2 days drug incubation, 50% reduction vs time zero, read-out: Hep3B LC50.
Take `CCOc1ccc(-c2nc(NC(=O)c3ccc([N+](=O)[O-])s3)c3cnn(C4CCCCC4)c3n2)cc1Cl` [Compound 10-44]: the LC50 is greater than 2000 nM.
As for `O=C(Nc1nc(-c2cc(Cl)ccc2F)nc2c1cnn2C1CCCCC1)c1ccc([N+](=O)[O-])s1` [Compound 10-47, N-(6-(5-chloro-2-fluorophenyl)-1-cyclohexyl-1H-pyrazolo[3,4-d]pyrimidin-4-yl)-5-nitrothiophene-2-carboxamide], the LC50 came to 630 nM.
Still for that read-out and setting: next, `O=C(Nc1nc(-c2ccsc2)nc2c1cnn2C1CCCCC1)c1ccc([N+](=O)[O-])s1` [Compound 10-6, N-(1-cyclohexyl-6-(thiophen-3-yl)-1H-pyrazolo[3,4-d]pyrimidin-4-yl)-5-nitrothiophene-2-carboxamide]: 1030 nM; `COC(=O)c1cccc(-c2nc(NC(=O)c3ccc([N+](=O)[O-])s3)c3cnn(C4CCCCC4)c3n2)c1` [Compound 10-31, methyl 3-(1-cyclohexyl-4-(5-nitrothiophene-2-carboxamido)-1H-pyrazolo[3,4-d]pyrimidin-6-yl)benzoate]: 580 nM; `CN(C)Cc1ccc(-c2nc(NC(=O)c3ccc([N+](=O)[O-])s3)c3cnn(C4CCCCC4)c3n2)cc1` [Compound 10-29, N-(1-cyclohexyl-6-(4-((dimethylamino)methyl)phenyl)-1H-pyrazolo[3,4-d]pyrimidin-4-yl)-5-nitrothiophene-2-carboxamide]: 1510 nM.
On the same count and under the same terms, next, `CC1CC(C)CC(n2ncc3c(NC(=O)c4ccc([N+](=O)[O-])s4)nc(-c4ccc(Cl)cc4)nc32)C1` (stereo not drawn) [Compound 10-69, N-(6-(4-chlorophenyl)-1-(3,5-dimethylcyclohexyl)-1H-pyrazolo[3,4-d]pyrimidin-4-yl)-5-nitrothiophene-2-carboxamide]: 860 nM; `O=C(Nc1nc(-c2ccc(F)cc2)nc2c1cnn2C1CCC(F)(F)CC1)c1ccc([N+](=O)[O-])s1` [Compound 10-54, N-(1-(4,4-difluorocyclohexyl)-6-(4-fluorphenyl)-1H-pyrazolo[3,4-d]pyrimidin-4-yl)-5-nitrothiophene-2-carboxamide]: 920 nM.
